Source: the Kinase Knowledgebase extract (Sharma et al. 2016)
Several values for one entry are separate records, joined by “and”; a condition that tells them apart may be missing. Equal values may be shown once.

Legend:
[1] = target: PIK3CA (human) (UniProt P42336); assay: Enzyme Assay
[2] = target: PIK3CD (Human) (UniProt O00329); assay: Enzyme Assay
[3] = target: PIK3CG (human) (UniProt P48736); assay: Enzyme Assay
[4] = target: PIK3CD (Human) (UniProt O00329); assay: Cell-Based Assay; conditions: raji
[5] = target: PIK3CB (Human) (UniProt P42338); assay: Enzyme Assay
Sequence of PIK3CB (Human) (P42338 whole entry, looked up): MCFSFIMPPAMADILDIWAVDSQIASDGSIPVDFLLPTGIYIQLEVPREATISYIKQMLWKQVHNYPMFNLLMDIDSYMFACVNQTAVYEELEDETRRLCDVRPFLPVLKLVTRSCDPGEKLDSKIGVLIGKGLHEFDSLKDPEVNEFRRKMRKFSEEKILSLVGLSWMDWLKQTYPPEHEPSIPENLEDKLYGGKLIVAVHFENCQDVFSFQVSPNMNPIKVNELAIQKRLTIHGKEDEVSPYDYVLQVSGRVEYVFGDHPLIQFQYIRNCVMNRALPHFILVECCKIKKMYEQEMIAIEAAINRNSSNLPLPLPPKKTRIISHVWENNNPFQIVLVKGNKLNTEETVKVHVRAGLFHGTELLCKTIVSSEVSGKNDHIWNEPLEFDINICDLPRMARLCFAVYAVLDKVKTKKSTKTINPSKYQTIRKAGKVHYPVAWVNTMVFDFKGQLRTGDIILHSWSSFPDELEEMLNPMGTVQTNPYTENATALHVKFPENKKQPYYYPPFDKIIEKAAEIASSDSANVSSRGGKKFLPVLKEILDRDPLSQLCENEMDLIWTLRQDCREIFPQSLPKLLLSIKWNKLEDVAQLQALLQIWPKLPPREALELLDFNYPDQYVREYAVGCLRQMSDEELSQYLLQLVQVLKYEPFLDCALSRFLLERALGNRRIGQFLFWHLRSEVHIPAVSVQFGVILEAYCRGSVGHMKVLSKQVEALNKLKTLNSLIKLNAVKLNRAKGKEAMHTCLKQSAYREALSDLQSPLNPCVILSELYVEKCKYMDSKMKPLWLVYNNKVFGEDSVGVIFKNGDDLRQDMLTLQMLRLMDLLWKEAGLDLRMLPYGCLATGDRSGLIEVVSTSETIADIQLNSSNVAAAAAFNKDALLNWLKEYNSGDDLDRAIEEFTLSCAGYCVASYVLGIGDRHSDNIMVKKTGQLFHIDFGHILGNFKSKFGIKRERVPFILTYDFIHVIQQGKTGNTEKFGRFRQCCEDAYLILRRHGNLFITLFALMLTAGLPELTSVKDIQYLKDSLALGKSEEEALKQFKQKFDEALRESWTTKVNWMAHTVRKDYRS

Sequence of PIK3CA (human) (P42336 whole entry, looked up): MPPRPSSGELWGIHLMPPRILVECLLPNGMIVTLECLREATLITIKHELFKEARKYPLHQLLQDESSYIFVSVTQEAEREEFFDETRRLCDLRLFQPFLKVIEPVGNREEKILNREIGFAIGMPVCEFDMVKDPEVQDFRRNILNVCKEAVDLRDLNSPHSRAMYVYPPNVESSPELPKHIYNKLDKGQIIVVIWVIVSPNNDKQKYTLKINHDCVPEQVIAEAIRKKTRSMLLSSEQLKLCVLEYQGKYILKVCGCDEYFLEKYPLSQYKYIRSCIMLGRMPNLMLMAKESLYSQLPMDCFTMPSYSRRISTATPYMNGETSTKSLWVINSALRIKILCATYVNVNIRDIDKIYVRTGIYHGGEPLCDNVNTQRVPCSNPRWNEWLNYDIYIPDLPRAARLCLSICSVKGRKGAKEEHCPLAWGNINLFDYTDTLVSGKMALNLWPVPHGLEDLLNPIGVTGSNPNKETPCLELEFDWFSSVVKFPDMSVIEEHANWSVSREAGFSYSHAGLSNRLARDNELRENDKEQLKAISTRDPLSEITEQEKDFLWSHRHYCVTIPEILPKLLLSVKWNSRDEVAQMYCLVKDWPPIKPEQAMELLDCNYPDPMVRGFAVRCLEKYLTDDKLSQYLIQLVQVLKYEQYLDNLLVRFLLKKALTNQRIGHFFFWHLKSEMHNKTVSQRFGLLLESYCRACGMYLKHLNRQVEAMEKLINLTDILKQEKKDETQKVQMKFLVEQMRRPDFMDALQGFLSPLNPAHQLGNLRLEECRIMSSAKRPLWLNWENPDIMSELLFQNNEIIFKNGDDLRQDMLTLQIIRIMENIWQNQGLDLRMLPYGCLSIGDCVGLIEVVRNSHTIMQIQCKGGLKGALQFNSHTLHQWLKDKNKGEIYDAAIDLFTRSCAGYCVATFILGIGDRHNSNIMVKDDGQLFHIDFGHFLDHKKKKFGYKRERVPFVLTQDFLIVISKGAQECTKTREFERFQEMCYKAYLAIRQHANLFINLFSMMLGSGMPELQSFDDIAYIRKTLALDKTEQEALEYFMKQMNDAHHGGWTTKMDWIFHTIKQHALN
Sequence of PIK3CG (human) (P48736 whole entry, looked up): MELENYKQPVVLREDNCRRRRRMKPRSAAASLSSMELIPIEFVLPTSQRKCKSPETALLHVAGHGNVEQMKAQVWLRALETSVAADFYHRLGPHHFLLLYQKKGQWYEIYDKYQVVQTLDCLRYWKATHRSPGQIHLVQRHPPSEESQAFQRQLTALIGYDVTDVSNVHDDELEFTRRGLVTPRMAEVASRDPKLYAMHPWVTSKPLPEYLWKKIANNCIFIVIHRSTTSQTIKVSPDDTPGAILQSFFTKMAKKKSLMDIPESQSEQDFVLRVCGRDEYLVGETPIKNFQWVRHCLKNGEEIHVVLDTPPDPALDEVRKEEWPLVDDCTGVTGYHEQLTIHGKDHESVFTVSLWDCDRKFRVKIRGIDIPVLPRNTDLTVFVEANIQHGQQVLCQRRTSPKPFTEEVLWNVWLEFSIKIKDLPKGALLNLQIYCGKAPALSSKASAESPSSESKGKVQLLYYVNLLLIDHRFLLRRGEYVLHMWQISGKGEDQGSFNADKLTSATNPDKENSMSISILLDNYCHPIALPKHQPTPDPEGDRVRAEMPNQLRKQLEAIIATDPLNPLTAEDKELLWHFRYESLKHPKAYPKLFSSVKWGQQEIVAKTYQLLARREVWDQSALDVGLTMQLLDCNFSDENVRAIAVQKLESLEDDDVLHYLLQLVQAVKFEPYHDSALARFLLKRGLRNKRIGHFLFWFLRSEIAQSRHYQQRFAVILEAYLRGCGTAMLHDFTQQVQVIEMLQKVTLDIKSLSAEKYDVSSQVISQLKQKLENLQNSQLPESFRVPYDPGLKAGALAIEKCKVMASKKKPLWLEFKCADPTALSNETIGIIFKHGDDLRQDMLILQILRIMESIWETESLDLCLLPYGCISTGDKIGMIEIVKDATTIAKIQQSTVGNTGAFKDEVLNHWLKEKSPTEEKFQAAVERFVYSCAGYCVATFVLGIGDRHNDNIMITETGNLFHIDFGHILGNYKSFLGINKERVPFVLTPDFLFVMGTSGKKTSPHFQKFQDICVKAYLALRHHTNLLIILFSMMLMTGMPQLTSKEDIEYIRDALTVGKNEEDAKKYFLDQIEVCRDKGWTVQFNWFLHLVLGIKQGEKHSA
Sequence of PIK3CD (Human) (O00329 whole entry, looked up): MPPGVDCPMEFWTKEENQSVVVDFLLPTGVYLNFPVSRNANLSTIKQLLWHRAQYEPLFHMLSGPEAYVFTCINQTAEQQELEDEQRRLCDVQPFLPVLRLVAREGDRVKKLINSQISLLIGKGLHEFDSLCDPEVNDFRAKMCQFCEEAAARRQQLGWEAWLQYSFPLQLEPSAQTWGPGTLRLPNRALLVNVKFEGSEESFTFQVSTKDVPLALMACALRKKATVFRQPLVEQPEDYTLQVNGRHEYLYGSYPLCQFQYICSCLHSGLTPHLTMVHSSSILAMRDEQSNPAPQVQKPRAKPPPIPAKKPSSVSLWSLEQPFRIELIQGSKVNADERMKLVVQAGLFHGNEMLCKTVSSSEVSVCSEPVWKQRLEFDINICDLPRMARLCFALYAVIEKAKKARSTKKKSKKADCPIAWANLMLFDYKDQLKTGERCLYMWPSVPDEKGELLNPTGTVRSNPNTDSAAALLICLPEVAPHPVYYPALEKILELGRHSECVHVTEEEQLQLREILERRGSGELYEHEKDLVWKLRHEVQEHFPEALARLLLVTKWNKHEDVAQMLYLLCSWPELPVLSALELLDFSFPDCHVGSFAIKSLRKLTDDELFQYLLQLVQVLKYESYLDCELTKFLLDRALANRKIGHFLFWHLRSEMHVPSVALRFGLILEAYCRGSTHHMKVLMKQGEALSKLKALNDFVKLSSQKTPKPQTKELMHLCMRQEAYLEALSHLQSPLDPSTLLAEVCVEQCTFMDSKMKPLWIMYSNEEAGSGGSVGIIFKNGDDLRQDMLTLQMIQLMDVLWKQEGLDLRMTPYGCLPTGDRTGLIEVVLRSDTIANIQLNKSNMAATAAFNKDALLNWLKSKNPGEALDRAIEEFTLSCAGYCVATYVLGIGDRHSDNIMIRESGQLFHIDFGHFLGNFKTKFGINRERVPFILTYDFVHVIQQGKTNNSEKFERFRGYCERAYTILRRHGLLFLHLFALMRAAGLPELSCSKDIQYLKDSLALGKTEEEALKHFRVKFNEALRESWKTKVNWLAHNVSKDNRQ

For `COc1cc(-c2cccc3nc([C@H](C)NC(=O)c4c(N)nn5cccnc45)n(-c4ccccc4)c(=O)c23)ccn1`, the IC50 [1] was 0.1 to 1 µM, the IC50 [2] was 0.1 to 1 µM and the IC50 [3] was under 0.1 µM. It also gave an IC50 [4] of under 0.1 µM.

`C[C@H](NC(=O)c1nccnc1N)c1cc2cccc(-c3cc[nH]n3)c2c(=O)n1-c1ccccc1` was tested, and the IC50 [1] was at least 10 µM, the IC50 [5] was at least 10 µM and the IC50 [2] was 0.1 to 1 µM. The IC50 [4] was under 0.1 µM.

For `Cc1cnc(C(=O)N[C@@H](C)c2cc3cccc(C(F)(F)F)c3c(=O)n2-c2ccccc2)c(N)n1`, the IC50 [1] was at least 10 µM, the IC50 [5] was at least 10 µM and the IC50 [2] was at least 10 µM.

With `C[C@H](NC(=O)c1nc(-c2cccc(O)c2)cnc1N)c1cc2cccc(Cl)c2c(=O)n1-c1ccccc1` the IC50 [1] was at least 10 µM, the IC50 [2] was at least 10 µM and the IC50 [4] was 0.1 to 1 µM.

In the case of `C[C@H](NC(=O)c1c(N)nn2cccnc12)c1cc2cccc(O)c2c(=O)n1-c1ccccc1`, the IC50 [1] is reported as at least 10 µM, the IC50 [2] is reported as at least 10 µM and the IC50 [4] is reported as 0.1 to 1 µM.

`CC(C)Nc1cccc2cc([C@H](C)NC(=O)c3c(N)nn4cccnc34)n(-c3ccccc3)c(=O)c12` was tested, and the IC50 [1] was at least 10 µM, the IC50 [5] was at least 10 µM and the IC50 [2] was at least 10 µM. It also gave an IC50 [3] of at least 10 µM.

With `COc1cc(-c2cccc3cc([C@H](C)NC(=O)c4c(N)nn5cccnc45)n(C4CCCCC4)c(=O)c23)ccn1` the IC50 [1] was at least 10 µM, the IC50 [5] was at least 10 µM and the IC50 [2] was at least 10 µM.

Work on `C[C@H](NC(=O)c1c(N)nn2cccnc12)c1cc2cccc(N(C)C)c2c(=O)n1-c1ccccc1` yielded an IC50 [1] of at least 10 µM, an IC50 [5] of at least 10 µM and an IC50 [2] of at least 10 µM.

In the case of `C[C@H](NC(=O)c1c(N)nn2cccnc12)c1cc2cccc(Cl)c2c(=O)n1CC(=O)N(C)C`, the IC50 [1] is reported as at least 10 µM, the IC50 [2] is reported as at least 10 µM and the IC50 [3] is reported as at least 10 µM.

In the case of `COc1cccc(-c2cnc(N)c(C(=O)N[C@@H](C)c3cc4cccc(Cl)c4c(=O)n3-c3ccccc3)n2)c1`, the IC50 [1] is reported as at least 10 µM, the IC50 [5] is reported as at least 10 µM and the IC50 [2] is reported as at least 10 µM. For the same compound, the IC50 [3] was at least 10 µM.

`Nc1nn2cccnc2c1C(=O)N1CCC[C@H]1c1cc2cccc(Cl)c2c(=O)n1-c1ccccc1` gave an IC50 [1] of at least 10 µM and an IC50 [2] of at least 10 µM.

`C[C@H](NC(=O)c1c(N)nn2cccnc12)c1cc2cccc(/C=C/c3ccccc3)c2c(=O)n1-c1ccccc1` showed an IC50 [1] of at least 10 µM, an IC50 [5] of at least 10 µM and an IC50 [2] of at least 10 µM. The IC50 [3] was at least 10 µM.

`CC(C)c1ccnc2c(C(=O)N[C@@H](C)c3cc4cccc(Cl)c4c(=O)n3-c3ccccc3)c(N)nn12` gave an IC50 [1] of at least 10 µM, an IC50 [5] of at least 10 µM and an IC50 [2] of at least 10 µM. The IC50 [3] was at least 10 µM.

Compound `C[C@H](NC(=O)c1nc(-c2cccc(NS(C)(=O)=O)c2)cnc1N)c1cc2cccc(N3CCOCC3)c2c(=O)n1-c1ccccc1` has an IC50 [1] of at least 10 µM, an IC50 [5] of at least 10 µM and an IC50 [2] of at least 10 µM.

With `C[C@H](NC(=O)c1c(N)nn2cccnc12)c1cc2cccc(N3CCN(C)CC3)c2c(=O)n1-c1ccccc1` the IC50 [1] was at least 10 µM, the IC50 [5] was at least 10 µM and the IC50 [2] was at least 10 µM. It also gave an IC50 [3] of at least 10 µM.

`C[C@H](NC(=O)c1cc(-c2cccc(NS(C)(=O)=O)c2)cnc1N)c1cc2cccc(Cl)c2c(=O)n1-c1ccccc1` showed an IC50 [1] of at least 10 µM, an IC50 [5] of at least 10 µM and an IC50 [2] of at least 10 µM. The IC50 [3] was at least 10 µM.

With `CC(C)Oc1ccc(-c2cnc(N)c(C(=O)N[C@@H](C)c3cc4cccc(Cl)c4c(=O)n3-c3ccccc3)n2)cc1` the IC50 [1] was at least 10 µM, the IC50 [5] was at least 10 µM and the IC50 [2] was at least 10 µM. The IC50 [4] was at least 10 µM.

`C[C@H](NC(=O)c1nc(-c2ccc(NS(C)(=O)=O)cc2)cnc1N)c1cc2cccc(Cl)c2c(=O)n1-c1ccccc1` gave an IC50 [1] of at least 10 µM, an IC50 [5] of at least 10 µM and an IC50 [2] of at least 10 µM.

`C[C@H](NC(=O)c1c(N)nn2cccnc12)c1nn2ccc(-c3cnn(C)c3)c2c(=O)n1-c1ccccc1` gave an IC50 [1] of at least 10 µM, an IC50 [5] of at least 10 µM and an IC50 [2] of at least 10 µM. For the same compound, the IC50 [3] was at least 10 µM.

`C[C@H](NC(=O)c1c(N)nn2cccnc12)c1cc2cccc(F)c2c(=O)n1-c1ccccc1` was tested, and the IC50 [1] was at least 10 µM, the IC50 [5] was ≥ 10 µM and 0.1 to 1 µM and the IC50 [2] was ≥ 10 µM and 0.1 to 1 µM. The IC50 [4] was under 0.1 µM.

With `C[C@H](NC(=O)c1c(N)nn2cccnc12)c1cc2cccc(N3CCOCC3)c2c(=O)n1-c1ccccc1` the IC50 [1] was at least 10 µM, the IC50 [5] was at least 10 µM and the IC50 [2] was at least 10 µM.

With `CC(C)Oc1ccc(-c2cnc(N)c(C(=O)N[C@@H](C)c3cc4cccc(Cl)c4c(=O)n3-c3ccccc3)n2)cc1Cl` the IC50 [1] was at least 10 µM, the IC50 [5] was at least 10 µM and the IC50 [2] was at least 10 µM. It also gave an IC50 [4] of at least 10 µM.

With `C[C@H](NC(=O)c1nc(-c2csc(S(C)(=O)=O)n2)cnc1N)c1cc2cccc(Cl)c2c(=O)n1-c1ccccc1` the IC50 [1] was at least 10 µM and the IC50 [2] was at least 10 µM.

For `COc1cc(-c2cccc3cc(C(C)NC(=O)c4c(N)nn5cccnc45)c(-c4ccccc4)nc23)ccn1` (stereo not drawn), the IC50 [1] was at least 10 µM, the IC50 [5] was at least 10 µM and the IC50 [2] was at least 10 µM. The IC50 [4] was 0.1 to 1 µM.

For `C[C@H](NC(=O)c1c(N)nn2cccnc12)c1nc2cccc(Cl)c2c(=O)n1-c1ccccc1`, the IC50 [5] was 0.1 to 1 µM, the IC50 [2] was under 0.1 µM and the IC50 [3] was under 0.1 µM. It also gave an IC50 [4] of under 0.1 µM.

`C[C@H](NC(=O)c1nc(-c2ccccc2)cnc1N)c1cc2cccc(Cl)c2c(=O)n1-c1ccccc1` was tested, and the IC50 [1] was at least 10 µM, the IC50 [5] was at least 10 µM and the IC50 [2] was at least 10 µM. It also gave an IC50 [4] of 0.1 to 1 µM.

`C[C@H](NC(=O)c1c(N)nn2cccnc12)c1cc2scc(-c3cnn(C)c3)c2c(=O)n1-c1ccccc1` gave an IC50 [1] of at least 10 µM, an IC50 [5] of at least 10 µM and an IC50 [2] of at least 10 µM.

Compound `C[C@H](NC(=O)c1nc(-c2ccc(S(C)(=O)=O)cc2)cnc1N)c1cc2cccc(Cl)c2c(=O)n1-c1ccccc1` has an IC50 [1] of at least 10 µM, an IC50 [5] of at least 10 µM and an IC50 [2] of at least 10 µM.

`C[C@H](NC(=O)c1nccnc1N)c1cc2cccc(-c3cccnc3)c2c(=O)n1-c1ccccc1` showed an IC50 [1] of at least 10 µM, an IC50 [5] of at least 10 µM and an IC50 [2] of under 0.1 µM. For the same compound, the IC50 [4] was under 0.1 µM.

`C[C@H](NC(=O)c1c(N)nn2cccnc12)c1cc2cccc(Cl)c2c(=O)n1CCN(C)C` gave an IC50 [1] of at least 10 µM, an IC50 [5] of under 0.1 µM and an IC50 [2] of under 0.1 µM. For the same compound, the IC50 [4] was under 0.1 µM.

With `C[C@H](NC(=O)c1cncc2cccnc12)c1cc2cccc(Cl)c2c(=O)n1-c1ccccc1` the IC50 [1] was at least 10 µM, the IC50 [2] was 0.1 to 1 µM and the IC50 [4] was under 0.1 µM.

In the case of `C[C@H](NC(=O)c1c(N)ncc2cccnc12)c1cc2cccc(Cl)c2c(=O)n1-c1ccccc1`, the IC50 [5] is reported as 0.1 to 1 µM, the IC50 [2] is reported as 0.1 to 1 µM and the IC50 [3] is reported as 0.1 to 1 µM. The IC50 [4] was under 0.1 µM.

Work on `COc1cc(-c2cccc3cc([C@H](C)NC(=O)c4c(N)ncc5cccnc45)n(-c4ccccc4)c(=O)c23)ccn1` yielded an IC50 [5] of at least 10 µM, an IC50 [2] of 0.1 to 1 µM and an IC50 [3] of under 0.1 µM. It also gave an IC50 [4] of under 0.1 µM.

`C[C@H](NC(=O)c1c(N)nn2cccnc12)c1cc2cccc(Cl)c2c(=O)n1C` showed an IC50 [5] of under 0.1 µM, an IC50 [2] of 0.1 to 1 µM and an IC50 [3] of 0.1 to 1 µM. It also gave an IC50 [4] of under 0.1 µM.

`C[C@H](NC(=O)c1c(N)nn2cccnc12)c1cc2cccc(-c3cccnc3)c2c(=O)n1-c1ccccc1` showed an IC50 [5] of at least 10 µM, an IC50 [2] of 0.1 to 1 µM and an IC50 [3] of 0.1 to 1 µM. The IC50 [4] was under 0.1 µM.

`C[C@H](NC(=O)c1c(N)nn2cccnc12)c1cc2cccc(NCC(F)(F)F)c2c(=O)n1-c1ccccc1` gave an IC50 [1] of at least 10 µM, an IC50 [5] of at least 10 µM and an IC50 [2] of at least 10 µM. For the same compound, the IC50 [4] was 0.1 to 1 µM.

With `C[C@H](NC(=O)c1nccnc1N)c1nc2cccc(Cl)c2c(=O)n1-c1ccccc1` the IC50 [1] was at least 10 µM, the IC50 [2] was under 0.1 µM and the IC50 [3] was 0.1 to 1 µM.

With `COC(=O)c1ncsc1-c1cccc2cc([C@H](C)NC(=O)c3c(N)nn4cccnc34)n(-c3ccccc3)c(=O)c12` the IC50 [1] was at least 10 µM, the IC50 [5] was at least 10 µM and the IC50 [2] was at least 10 µM.

Compound `COc1cncc(-c2cccc3cc([C@H](C)NC(=O)c4c(N)nn5cccnc45)n(-c4ccccc4)c(=O)c23)c1` has an IC50 [5] of at least 10 µM, an IC50 [2] of 0.1 to 1 µM and an IC50 [3] of under 0.1 µM. For the same compound, the IC50 [4] was under 0.1 µM.
